Assays:
[1] = system: Phakopsora pachyrhizi; experiment: Phakopsora pachyrhizi / soybean / leaf disc preventative (Asian soybean rust); assay type: in vivo; conditions: foliar, 200 ppm in the applied formulation, soybean leaf disks, inoculated one day after application, assessed 12 to 14 days after application, read-out: disease control compared to untreated control leaf disks
Protocol: Leaf disks or leaf segments of various plant species are cut from plants grown in a greenhouse. The cut leaf disks or segments are placed in multiwell plates (24-well format) onto water agar. The leaf disks are sprayed with a test solution before (preventative) or after (curative) inoculation. Compounds to be tested are prepared as DMSO solutions (max. 10 mg/ml) which are diluted to the appropriate concentration with 0.025% Tween20 just before spraying. The inoculated leaf disks or segments are incubated under defined conditions (temperature, relative humidity, light, etc.) according to the respective test system. A single evaluation of disease level is carried out 3 to 14 days after inoculation, depending on the pathosystem. Percent disease control relative to the untreated check leaf disks or segments is then calculated.
Soybean leaf disks are placed on water agar in multiwell plates (24-well format) and sprayed with the formulated test compound diluted in water. One day after application leaf discs are inoculated by spraying a spore suspension on the lower leaf surface. After an incubation period in a climate cabinet of 24-36 hours in darkness at 20° C. and 75% rh leaf disc are kept at 20° C. with 12 h light/day and 75% rh. The activity of a compound is assessed as percent disease control compared to untreated when an appropriate level of disease damage appears in untreated check leaf disks (12 to 14 days after application).
The following compounds at 200 ppm in the applied formulation give at least 80% disease control in this test when compared to untreated control leaf disks under the same conditions, which show extensive disease development.

[2] = system: Glomerella lagenarium (Colletotrichum lagenarium); experiment: Glomerella lagenarium (Colletotrichum lagenarium) liquid culture / cucumber / preventative (anthracnose); assay type: cell-based; conditions: Colletotrichum orbiculare; 20 ppm in the applied formulation; liquid culture in PDB, 24° C.; 3 to 4 days after application; read-out: disease control compared to untreated control (inhibition of growth measured photometrically)
Protocol: Mycelia fragments or conidia suspensions of a fungus prepared either freshly from liquid cultures of the fungus or from cryogenic storage, are directly mixed into nutrient broth. DMSO solutions of the test compound (max. 10 mg/ml) are diluted with 0.025% Tween20 by a factor of 50 and 10 μl of this solution is pipetted into a microtiter plate (96-well format). The nutrient broth containing the fungal spores/mycelia fragments is then added to give an end concentration of the tested compound. The test plates are incubated in the dark at 24° C. and 96% relative humidity. The inhibition of fungal growth is determined photometrically after 2 to 7 days, depending on the pathosystem, and percent antifungal activity relative to the untreated check is calculated.
Conidia of the fungus from cryogenic storage are directly mixed into nutrient broth (PDB—potato dextrose broth). After placing a (DMSO) solution of test compound into a microtiter plate (96-well format), the nutrient broth containing the fungal spores is added. The test plates are incubated at 24° C. and the inhibition of growth is measured photometrically 3 to 4 days after application.
The following compounds at 20 ppm in the applied formulation give at least 80% disease control in this test when compared to untreated control under the same conditions, which show extensive disease development.

Compound: O=S(=O)(Cc1ccc(-c2noc(C(F)(F)F)n2)c(F)c1F)c1ccccc1 [Compound 3.23, 3-[4-(benzenesulfonylmethyl)-2,3-difluoro-phenyl]-5-(trifluoromethyl)-1,2,4-oxadiazole]
- melting point: 187 to 191 °C
- pest or weed control at 200 ppm [1]: ≥ 80%

Compound: O=S(=O)(CC(F)(F)F)c1ccc(-c2noc(C(F)(F)F)n2)cc1 [Compound 3.5, 3-[4-(2,2,2-trifluoroethylsulfonyl)phenyl]-5-(trifluoromethyl)-1,2,4-oxadiazole]
- melting point: 117 to 122 °C
- inhibition at 20 ppm [2]: ≥ 80%

Compound: Fc1cccc(F)c1CSc1ccc(-c2noc(C(F)(F)F)n2)cc1 [Compound 1.6, 3-[4-[(2,6-difluorophenyl)methylsulfanyl]phenyl]-5-(trifluoromethyl)-1,2,4-oxadiazole]
- pest or weed control at 200 ppm [1]: ≥ 80%

Compound: Fc1cc(-c2noc(C(F)(F)F)n2)cc(F)c1CSc1ccccc1 [Compound 1.27, 3-[3,5-difluoro-4-(phenylsulfanylmethyl)phenyl]-5-(trifluoromethyl)-1,2,4-oxadiazole]
- melting point: 50 to 55 °C
- inhibition at 20 ppm [2]: ≥ 80%

Compound: O=S(=O)(c1ccc(-c2noc(C(F)(F)F)n2)cc1)C1CCCCC1 [Compound 3.3, 3-(4-cyclohexylsulfonylphenyl)-5-(trifluoromethyl)-1,2,4-oxadiazole]
- melting point: 110 to 116 °C
- inhibition at 20 ppm [2]: ≥ 80%
- pest or weed control at 200 ppm [1]: ≥ 80%

Compound: O=S(=O)(Cc1ccc(-c2noc(C(F)(F)F)n2)c(F)c1)c1ccccc1 [Compound 3.22, 3-[4-(benzenesulfonylmethyl)-2-fluoro-phenyl]-5-(trifluoromethyl)-1,2,4-oxadiazole]
- melting point: 172 to 178 °C
- pest or weed control at 200 ppm [1]: ≥ 80%

Compound: Cc1ccccc1Sc1ccc(-c2noc(C(F)(F)F)n2)cc1 [Compound 1.17, 3-[4-(o-tolylsulfanyl)phenyl]-5-(trifluoromethyl)-1,2,4-oxadiazole]
- pest or weed control at 200 ppm [1]: ≥ 80%

Compound: FC(F)(F)c1nc(-c2ccc(CSc3ccccc3)cc2)no1 [Compound 1.13, 3-[4-(phenylsulfanylmethyl)phenyl]-5-(trifluoromethyl)-1,2,4-oxadiazole]
- melting point: 86 to 91 °C
- pest or weed control at 200 ppm [1]: ≥ 80%

Compound: FC(F)(F)c1nc(-c2ccc(SCc3ccccc3)nc2)no1 [Compound 1.21, 3-(6-benzylsulfanyl-3-pyridyl)-5-(trifluoromethyl)-1,2,4-oxadiazole]
- melting point: 66 to 68 °C
- inhibition at 20 ppm [2]: ≥ 80%

Compound: O=S(=O)(Cc1ccc(-c2noc(C(F)(F)F)n2)cc1)c1ccccc1F [Compound 3.11, 3-[4-[(2-fluorophenyl)sulfonylmethyl]phenyl]-5-(trifluoromethyl)-1,2,4-oxadiazole]
- melting point: 150 to 154 °C
- pest or weed control at 200 ppm [1]: ≥ 80%

Compound: [O-][S+](c1ccc(-c2noc(C(F)(F)F)n2)cc1)c1ccccc1C(F)(F)F (stereo not drawn) [Compound 2.21, 5-(trifluoromethyl)-3-[4-[2-(trifluoromethyl)phenyl]sulfinylphenyl]-1,2,4-oxadiazole]
- melting point: 80 to 86 °C
- pest or weed control at 200 ppm [1]: ≥ 80%

Compound: Cc1ccc(C)c(S(=O)(=O)c2ccc(-c3noc(C(F)(F)F)n3)cc2)c1 [Compound 3.6, 3-[4-(2,5-dimethylphenyl)sulfonyl-phenyl]-5-(trifluoromethyl)-1,2,4-oxadiazole]
- melting point: 118 to 125 °C
- inhibition at 20 ppm [2]: ≥ 80%

Compound: Cc1cc(-c2noc(C(F)(F)F)n2)ccc1S(=O)(=O)c1ccccc1 [Compound 3.8, 3-[4-(benzenesulfonyl)-3-methyl-phenyl]-5-(trifluoromethyl)-1,2,4-oxadiazole]
- melting point: 117 to 124 °C
- inhibition at 20 ppm [2]: ≥ 80%

Compound: Cc1cc(-c2noc(C(F)(F)F)n2)ccc1SCc1ccccc1 [Compound 1.22, 3-(4-benzylsulfanyl-3-methyl-phenyl)-5-(trifluoromethyl)-1,2,4-oxadiazole]
- melting point: 66 to 72 °C

Compound: COc1ccccc1Sc1ccc(-c2noc(C(F)(F)F)n2)cc1 [Compound 1.11, 3-[4-(2-methoxyphenyl)sulfanyl-phenyl]-5-(trifluoromethyl)-1,2,4-oxadiazole]
- pest or weed control at 200 ppm [1]: ≥ 80%

Compound: FC(F)(F)c1nc(-c2ccc(Sc3ccccc3Cl)cc2)no1 [Compound 1.18, 3-[4-(2-chlorophenyl)sulfanylphenyl]-5-(trifluoromethyl)-1,2,4-oxadiazole]
- pest or weed control at 200 ppm [1]: ≥ 80%

Compound: Fc1ccccc1Sc1ccc(-c2noc(C(F)(F)F)n2)cn1 [Compound 1.20, 3-[6-(2-fluorophenyl)sulfanyl-3-pyridyl]-5-(trifluoromethyl)-1,2,4-oxadiazole]
- inhibition at 20 ppm [2]: ≥ 80%
- pest or weed control at 200 ppm [1]: ≥ 80%

Compound: FC(F)(F)c1nc(-c2ccc(SCc3ccccc3)cc2)no1 [Compound 1.3, 3-(4-benzylsulfanylphenyl)-5-(trifluoromethyl)-1,2,4-oxadiazole]
- melting point: 83 to 87 °C

Compound: O=S(=O)(Cc1c(F)cc(-c2noc(C(F)(F)F)n2)cc1F)c1ccccc1 [Compound 3.24, 3-[4-(benzenesulfonylmethyl)-3,5-difluoro-phenyl]-5-(trifluoromethyl)-1,2,4-oxadiazole]
- melting point: 135 to 140 °C
- pest or weed control at 200 ppm [1]: ≥ 80%

Compound: FC(F)(F)CSc1ccc(-c2noc(C(F)(F)F)n2)cc1 [Compound 1.4, 3-[4-(2,2,2-trifluoroethylsulfanyl)phenyl]-5-(trifluoromethyl)-1,2,4-oxadiazole]
- pest or weed control at 200 ppm [1]: ≥ 80%

Compound: [O-][S+](Cc1ccccc1)c1ccc(-c2noc(C(F)(F)F)n2)cc1 (stereo not drawn) [Compound 2.4, 3-(4-benzylsulfinylphenyl)-5-(trifluoromethyl)-1,2,4-oxadiazole]
- melting point: 178 to 181 °C
- inhibition at 20 ppm [2]: ≥ 80%

Compound: Cc1ccccc1Sc1ccc(-c2noc(C(F)(F)F)n2)cn1 [Compound 1.19, 3-[6-(o-tolylsulfanyl)-3-pyridyl]-5-(trifluoromethyl)-1,2,4-oxadiazole]
- inhibition at 20 ppm [2]: ≥ 80%

Compound: O=S(=O)(c1ccc(-c2noc(C(F)(F)F)n2)cc1)c1ccc(F)cc1F [Compound 3.4, 3-[4-(2,4-difluorophenyl)sulfonyl-phenyl]-5-(trifluoromethyl)-1,2,4-oxadiazole]
- inhibition at 20 ppm [2]: ≥ 80%
- pest or weed control at 200 ppm [1]: ≥ 80%

Compound: [O-][S+](Cc1ccc(-c2noc(C(F)(F)F)n2)c(F)c1)c1ccccc1 (stereo not drawn) [Compound 2.30, 3-[4-(benzenesulfinylmethyl)-2-fluoro-phenyl]-5-(trifluoromethyl)-1,2,4-oxadiazole]
- melting point: 149 to 156 °C

Compound: CC(C)(C)Sc1ccc(-c2noc(C(F)(F)F)n2)cc1 [Compound 1.16, 3-(4-tert-butylsulfanylphenyl)-5-(trifluoromethyl)-1,2,4-oxadiazole]
- inhibition at 20 ppm [2]: ≥ 80%

Compound: CCC(C)CS(=O)(=O)c1ccc(-c2noc(C(F)(F)F)n2)cc1 (stereo not drawn) [Compound 3.15, 3-[4-(2-methylbutylsulfonyl)phenyl]-5-(trifluoromethyl)-1,2,4-oxadiazole]
- melting point: 75 to 80 °C
- inhibition at 20 ppm [2]: ≥ 80%

Compound: O=S(=O)(c1ccc(-c2noc(C(F)(F)F)n2)cc1)c1ccccc1Cl [Compound 3.20, 3-[4-(2-chlorophenyl)sulfonylphenyl]-5-(trifluoromethyl)-1,2,4-oxadiazole]
- inhibition at 20 ppm [2]: ≥ 80%
- pest or weed control at 200 ppm [1]: ≥ 80%

Compound: Fc1ccc(Sc2ccc(-c3noc(C(F)(F)F)n3)cc2)cc1 [Compound 1.9, 3-[4-(4-fluorophenyl)sulfanylphenyl]-5-(trifluoromethyl)-1,2,4-oxadiazole]
- melting point: 64 to 67 °C
- pest or weed control at 200 ppm [1]: ≥ 80%

Compound: [O-][S+](Cc1ccccc1)c1ccc(-c2noc(C(F)(F)F)n2)cn1 (stereo not drawn) [Compound 2.27, 3-(6-benzylsulfinyl-3-pyridyl)-5-(trifluoromethyl)-1,2,4-oxadiazole]
- melting point: 122 to 125 °C
- inhibition at 20 ppm [2]: ≥ 80%

Compound: CC(C)(C)S(=O)(=O)c1ccc(-c2noc(C(F)(F)F)n2)cc1 [Compound 3.13, 3-(4-tert-butylsulfonylphenyl)-5-(trifluoromethyl)-1,2,4-oxadiazole]
- melting point: 133 to 136 °C
- inhibition at 20 ppm [2]: ≥ 80%
